Data published in patent US20110160279A1, “METHODS FOR TREATMENT AND PREVENTION OF OTOTOXICITY BY siRNA” (BOARD OF TRUSTEES OF SOUTHERN ILLINOIS UNIVERSITY, priority 2007, published 2011).

How the values were obtained:
TRPV1 mRNA = assay: Real time RT-PCR of TRPV1 mRNA in rat cochlea; type: in vivo
Procedure: (§1) Animal procedures and sample collection: Male Wistar rats were used for this study. Pre-ABR's were performed 2-3 days before round window application of siTRPV1 or PBS. […] The cochleas were dissected and used for the preparation of total RNA or total protein extracts, or perfused with 2.5% glutaraldehyde for morphological studies by Scanning Electron Microscopy (SEM's) or 4% paraformaldehyde for immunocytochemistry.
(§2) RNA was isolated by adding 1 ml TR1 reagent to 100 mg of cochlear or cortical tissue or 0.5 ml TR1 reagent (Sigma, St. Louis, Mo.) per well of each six well plate, according to the manufacturer's instructions.
(§3) Real time reverse transcriptase polymerase chain reaction (RT-PCR): One microgram of total RNA was converted to cDNA using iScript cDNA Synthesis Kit (Bio-Rad, Hercules, Calif.), and qRTPCR was performed as described by (Mukherjea et al, 2006). Gene specific primer pairs were used for the various reactions and mRNA expression levels were normalized to the levels of GAPDH house keeping gene.
(§4) The rodent set of primers and siRNA were based on the homologous sequences in the rat and mouse cDNA sequences. The primers were purchased from Sigma Genosys (St. Louis, Mo.). Purified siRNA duplexes were purchased from Qiagen (Valencia, Calif.).

NOX3 mRNA = assay: Real time RT-PCR of NOX3 mRNA in rat cochlea; type: in vivo
Procedure: as §1, §2, §3, §4

UB-OC1 cells [1] = assay: Cell viability and morphology of UB-OC1 cultures; type: cell-based, mouse; conditions: 100 μM AEBSF or 10 μM DPI
TRPV1 = type: cell-based, mouse; conditions: pretreatment with 100 μM AEBSF or 10 μM DPI before cisplatin 2.5 μM
Procedure: Immortalized organ of Corti cells derived from the mouse, UB/OC-1 cells, were obtained from Dr. Matthew Holley (Institute of Molecular Physiology, Addison Building, Western Bank, Sheffield, UK) and cultured in RPMI 1640 supplemented with 10% Fetalclone II (Hyclone, Logan, Utah) serum and penicillin-streptomycin. Cultures were grown in a 33° C. incubator in 10% CO2.
To further study the role of ROS generated via cochlear NADPH oxidases in the induction of TRPV1 in the cochlea, in vitro experiments were performed using the organ of Corti transformed hair cell line, UB/OC1 (Rivolta et al., Proc. R. Sco. Lond., 265, 1595-1603, 1998). […] Immunolabeling was quantitated by fluorescence imaging using a confocal microscope. […] The immunofluorescence in these groups was reduced by 60 and 70%, respectively (FIG. 2B). […] The increases in expression of these genes were inhibited by DPI (10 μM), indicative of a role or NADPH oxidase activity in the induction of these subunits (FIG. 2G).

UB-OC1 cells [2] = assay: Cisplatin-induced ROS generation by DCF2DA fluorescence in UB-OC1 cells; type: cell-based, mouse; conditions: pretreated with AEBSF 100 μM
Bax = Bax protein expression in UB/OC-1 cells; type: cell-based, mouse; conditions: pretreatment (capsazepine 10 μM; BAPTA-AM 30 min) before cisplatin
Procedure: (§5) The increases in these proteins were attenuated by capsazepine (10 μM), implicating TRPV1 in this process.

p53 = p53 protein expression in UB/OC-1 cells; type: cell-based, mouse; conditions: pretreatment (capsazepine 10 μM; BAPTA-AM 30 min) before cisplatin
Procedure: as §5

Structure (SMILES): O=C(O)CCCC[C@@H]1CCSS1 (racemic) [lipoic acid]
- effect on basal expression of TRPV1 (TRPV1 mRNA; rat cochlea, lipoic acid alone, not statistically significant): tendency to reduce basal expression of TRPV1
- effect on cisplatin-induced TRPV1 expression in vivo (TRPV1 mRNA; rats pretreated with lipoic acid before cisplatin, 72 hrs): completely abolished
- effect on basal expression of NOX3 (NOX3 mRNA; lipoic acid alone): significantly reduced
- effect on the increase in NOX3 by cisplatin (NOX3 mRNA; lipoic acid pretreatment, cisplatin 72 hrs): attenuated

Structure (SMILES): NCCc1ccc(S(=O)(=O)F)cc1 [AEBSF]
- effect on cell viability over a 24 h period (UB-OC1 cells [1]): did not significantly affect cell viability
- reduction of TRPV1 immunofluorescence (TRPV1): 60%
- effect on cisplatin-induced increase in ROS generation (UB-OC1 cells [2]): abolished

Structure (SMILES): CC(=O)OCOC(=O)CN(CC(=O)OCOC(C)=O)c1ccccc1OCCOc1ccccc1N(CC(=O)OCOC(C)=O)CC(=O)OCOC(C)=O [BAPTA-AM]
- effect on cisplatin-induced increase in Bax (Bax): substantial reduction
- effect on cisplatin-induced increase in p53 (p53): down-regulated the expression of these pro-apoptotic genes to control levels
